This note sets out measurements from patent US20130123298A1, “PHARMACEUTICAL COMPOSITION FOR THE PREVENTION OF PERIOPERATIVE ARTERIAL HYPOTENSION IN HUMANS” (LABORATOIRE AGUETTANT, priority 2010, published 2013).

This series deals with adult patients under general anesthetic in noncardiac surgery. The class given is in vivo, human. The protocol: The study covered 1,534 patients having received perioperative hemodynamic optimization with use of noradrenaline (in the form of noradrenaline tartrate) to maintain blood pressure under general anesthetic in noncardiac surgery in adults.
The hemodynamic surveillance is performed non-invasively as blood pressure is taken automatically every 2 minutes when inducing anesthesia, then every 5 minutes during the hemodynamic stability period.
Administration of noradrenaline in continuous perfusion with the solution titered at 10 μg/mL.
This solution is injected: • firstly as a continuous perfusion, in an automatic syringe pump, whose speed will be modulated as a function of the weight, age, and initial “blood pressure state” of the patient (notion of treated or untreated hypertension), of the presence or absence of epidural anesthesia combined with general anesthesia. • secondly as an isolated perfusion to prevent causing a bolus of NA during the injection of another drug in the perfusion tubing. This isolated perfusion is branched either on an extra venous catheter independent of the venous access used for the anesthetic, or on a multi-lumen catheter of a central venous path, or on a three-way tap located between the peripheral venous catheter and the end of the perfusion tubing.
The recommended dosages are 0.02 to 0.08 μg/kg/min of noradrenaline.
The suitable dosage is that which delivers blood pressure similar, within a limit of 20% of the preoperative blood pressure of the patient, and systolic blood pressure >100 mmHg
For general anesthetic, noradrenaline administration by continuous perfusion with the solution titered at 10 μg/mL must be started 3 to 4 minutes before inducing anesthesia to prevent hypotension caused by the anesthetic.
The patient is weaned off noradrenaline during the emergence phase by progressively reducing noradrenaline administration dosages as a function of how well the patient is returning to the preoperative blood pressure.
The study covered 1,534 patients 15 to 102 years old (average age 56 years old), with average weight 72 kg (extremes from 33 to 163 kg), mean preoperative blood pressure 138 mmHg (from 95 to 200 mmHg).
The induction procedure for general anesthetic is the same for all the patients: the patients receive 0.2 μg/kg of sufentanil, after 3 minutes 1.5 to 3 mg/kg propofol, then 0.15 mg/kg of cisatracurium.
The patients are intubated 3 minutes after the curare injection and ventilated with 8 mL/kg of theoretical weight.
Anesthesia is maintained using sevoflurane. The perioperative analgesia is handled by continuous injection of remifentanil and/or by iterative injection of sufentanil.
A continuous perfusion of noradrenaline in solution at 10 μg/mL of noradrenaline is administered 4 minutes before inducing anesthesia.
The dosages used are generally comprised between 0.02 and 0.08 μg/kg/min.
The patient is weaned off the continuous perfusion of the noradrenaline solution at 10 μg/mL in the emergence phase by progressively reducing the noradrenaline administration dosages as a function of how well the patient is returning to the preoperative blood pressure.
Clinically: non-invasive blood pressure surveillance is performed every 2 minutes when inducing anesthesia, then every 5 minutes during the hemodynamic stability period.
The quality of the perioperative hemostasis was always noted.
The following elements are systematically monitored and noted in the first 24 hours postoperative: agitation when waking, postoperative nausea and/or vomiting (PONY).
Biologically: troponin was assayed at D1 in 26.0% of patients judged to be at risk: 99.87% were at zero, one patient has a troponine assay at 0.04 and one patient at 0.05 μg/mL (significance threshold is 0.4 μg/mL). These patients were controlled again and their level had normalized at D2.
Urea and creatinine assay on D0 and D1 performed on 26.0% of the patients judged to be at higher risk. […]

Where [1] appears, read: general anesthetic combined with epidural anesthetic.

For the compound `NC[C@H](O)c1ccc(O)c(O)c1` [noradrenaline, 4-[(1R)-2-amino-1-hydroxyethyl]benzene-1,2-diol], the “effect on blood pressure” value (continuous injection) is listed as “immediate, brief, but without tachyphylaxis, long-lasting in continuous injection, rapidly reversible”. Besides, the “perioperative blood pressure control” value (five elderly patients with aortal stenosis and hip fracture, general anesthesia) was “controlled perioperative blood pressure during general anesthesia without cardiac incidents”. Further, under setting [1], the “duration of blood pressure control” value was “up to 400 min”; the “tachyphylaxis and vascular filling during prolonged blood pressure control” value was “without tachyphylaxis and without excess vascular filling”. Further, the blood pressure control result (hemodialyzed patients with renal failure, 0.05 to 0.08 μg/kg/min) is listed as “blood pressure could be controlled”. For the setting “human, in vivo”, the “cases of superficial venous thromboses detected” value is reported as “five”, the “hypertension needing nicardipine 1 mg bolus as last resort” value was 26 cases, the other undesirable effects entry is given as “No other undesirable effect” and the “patients with troponin at zero” value is 99.87%. Where the note is “human, in vivo”, the perioperative urine flows entry was “net increase”; the postoperative vomiting entry was “none of the patients”; the “renal function (urea and creatinine assay)” value is listed as “no changes to renal function”; the “urea and creatinine postoperative value” was “reduction of their postoperative value at D1”. Also, the postoperative nausea (human, in vivo, 24 h) stood at 1.2%. Moreover, the “distal peripheral venous thrombosis complications” value (human, in vivo, 4 day) was 0.32%. Further, the “lucidity at emergence and absence of agitation” value (independent of duration of intervention and patient age) is “noted in all patients”. The “health risk and surgical outcomes” value (patients over 80 years old (8.5%)) was “the health risk was controlled and surgical outcomes were simple”. Further, the quality of emergence result (young patients without history, 0.02 μg/kg/h) is “better lucidity and quasi-disappearance of postoperative nausea and vomiting”.
